Data: patent US6552048B2, “Sulfonylcarboxamide derivatives, process for their preparation and their use as pharmaceuticals” (Aventis Pharma Deutschland GmbH, priority 1999, dated 2003)

Experiments:
[1] = test system: human LDL receptor gene promoter region coupled to firefly Luciferase reporter gene in Hep-G2 cell line; assay: In vitro determination of LDL receptor induction using the Luciferase assay; type: cell-based; conditions: for LDL-receptor induction in %, compared with control: comparative test
Protocol: 1) In vitro Determination of LDL Receptor Induction Using the Luciferase Assay
LDL-receptor induction is determined using the Luciferase assay as follows: for this purpose, a regulatory DNA fragment (4 kb) of the human LDL receptor gene which contains the complete promoter region is coupled to the firefly Luciferase reporter gene and stably transfixed into a Hep-G2 cell line. Cells from this line were seeded out on collagen-coated 96-well plates in MEM (minimum essential medium). After 24 hours in culture, the test substances, dissolved in DMSO, were added in final concentrations of 10 nM to 10 μM (final DMSO concentration=2%). The substances were incubated for 12-18 hours overnight (4 wells/conc. in each case), then D-luciferin was added as substrate for the Luciferase, and the luminescence was measured. The measured luminescence as a percentage of the control (control=100%) incubated only with DMSO indicates the extent of the relative LDL-receptor induction (Table 2).
Further details of the method are described in: Current Protocols in Molecular Biology, F. M. Ausubel, R. Brent, R. E. Kingston, D. D. Moore, J. G. Seidman, J. A. Smith and Kevin Struhl editors, J. Wiley and Sons Inc., U.S.A.
A comparative test was carried out by the Luciferase assay described above using 2,4-dichloro-5-(3,5-dimethylpiperidinosulfamoyl)benzoic acid and the compound from Example 42. [drawing 8]

[2] = test system: hyperlipidemic hamsters; assay: In vivo determination of reduction in LDL cholesterol in hyperlipemic hamsters; design: species or system male Syrian hamsters; conditions: vs placebo-treated control
Text: 2) In vivo Determination of Reduction in LDL Cholesterol in Hamsters.
Cholesterol-lowering effect of LDL-receptor inducers in hyperlipemic hamsters
In this animal experiment, the effect of LDL-receptor inducers after bolus administration to hamsters on a lipid-rich diet was investigated.
The test animals used were male Syrian hamsters (Charles River) with an average body weight of 100-120 g at the start of adaptation. The animals were divided into groups (n=6) on the basis of body weight. Severe hyperlipidemia was induced by feeding with a diet supplemented with 15% butter and 3% cholesterol. The treatment started after preliminary feeding for 2 weeks. The test substances were administered orally by gavage once a day over a period of 10 days. The plasma lipid level was analyzed after 10 days.

[3] = test compound 1.5 μM, control (DMSO only)=100%, Hep-G2 reporter line
[4] = test compound 0.15 μM, control (DMSO only)=100%, Hep-G2 reporter line
[5] = test compound 0.05 μM, control (DMSO only)=100%, Hep-G2 reporter line
[6] = 20 mg/kg p.o. once a day for 10 days
[7] = 10 mg/kg p.o. once a day for 10 days
[8] = 40 mg/kg p.o. once a day for 10 days
[9] = test compound 0.15 μM, control (DMSO only)=100%, Hep-G2 reporter line, 0.15 µM

Question: With `CN1CCN(c2cc(NCCCc3ccccc3)c(S(=O)(=O)N(C)c3ccccc3)cc2C(=O)N(C)c2ccccc2)CC1` [Example 2] as the molecule, how does the “LDL-receptor induction (% of control)” value [1, 3] read?
Answer: 225% (1.5 μM)

Question: How did the “LDL-receptor induction (% of control)” value [1, 3] turn out when `CN1CCN(c2cc(NCCc3ccccc3)c(S(=O)(=O)N(C)c3ccccc3)cc2C(=O)N(C)c2ccccc2)CC1` [Example 3] was run?
Answer: 276% (1.5 μM)

Question: With `CN1CCN(c2cc(NC3CCN(Cc4ccccc4)CC3)c(S(=O)(=O)N(C)c3ccccc3)cc2C(=O)N(C)c2ccccc2)CC1` [Example 4] as the molecule, how does the “LDL-receptor induction (% of control)” value [1, 4] read?
Answer: 190% (0.15 μM)

Question: `CN1CCN(c2cc(N3CCC(Cc4ccccc4)CC3)c(S(=O)(=O)N(C)c3ccccc3)cc2C(=O)N(C)c2ccccc2)CC1` [Example 9] was tested. Which “LDL-receptor induction (% of control)” value [1, 4] did it give?
Answer: 170% (0.15 μM)

Question: `CN1CCN(c2cc(NC3CCN(Cc4ccccc4)CC3)c(S(C)(=O)=O)cc2C(=O)N(C)c2ccccc2)CC1` [Example 14] was tested. Which “LDL-receptor induction (% of control)” value [1, 3] did it give?
Answer: 176% (1.5 μM)

Question: How did the “LDL-receptor induction (% of control)” value [1, 4] turn out when `CN(C(=O)c1cc(S(=O)(=O)N(C)c2ccccc2)c(N2CCC(Cc3ccccc3)CC2)cc1NCCN1CCCC1)c1ccccc1` [Example 22] was run?
Answer: 224% (0.15 μM)

Question: `CN(C(=O)c1cc(S(=O)(=O)N(C)c2ccccc2)c(N2CCC(c3ccccc3)CC2)cc1NCCN1CCCC1)c1ccccc1` [Example 25] was tested. Which “LDL-receptor induction (% of control)” value [1, 5] did it give?
Answer: 152%

Question: What about the “LDL-receptor induction (% of control)” value [1, 3] of the same molecule?
Answer: 346%

Question: For `CN1CCN(c2cc(N3CCC(Cc4ccccc4)CC3)c(S(C)(=O)=O)cc2C(=O)N2CCCCC2)CC1` [Example 30], which “LDL-receptor induction (% of control)” value [1, 4] is on record?
Answer: 199%

Question: What about the “LDL-receptor induction (% of control)” value [1, 3] of the same molecule?
Answer: 255%

Question: Which “LDL-receptor induction (% of control)” value [1, 4] does the source give for `COCCCNC(=O)c1cc(S(C)(=O)=O)c(N2CCC(c3ccccc3)CC2)cc1N1CCN(C)CC1` [Example 34] here?
Answer: 210%

Question: What about the “LDL-receptor induction (% of control)” value ([1]; test compound 4 μM, control (DMSO only)=100%, Hep-G2 reporter line) of the same molecule?
Answer: 291%

Question: Which “Relative change in plasma LDL cholesterol” value [2, 6] does the source give for `CN1CCN(c2cc(N3CCC(c4ccccc4)CC3)c(S(=O)(=O)N3CCCCC3)cc2C(=O)N2CCCCC2)CC1` [Example 37] here?
Answer: −31%

Question: What about the “Relative change in plasma total cholesterol” value [2, 6] of the same molecule?
Answer: −21%

Question: What about the “Relative change in plasma triglycerides” value [2, 6] of the same molecule?
Answer: −46%

Question: And the “LDL-receptor induction (% of control)” value [1, 4]?
Answer: 204%

Question: And the “LDL-receptor induction (% of control)” value [1, 3]?
Answer: 227%

Question: Which activity at 0.05 µM ([1]; Homo sapiens, HepG2, test compound 0.05 μM, control (DMSO only)=100%, Hep-G2 reporter line) does the source give for `CCN(CC)C(=O)c1cc(S(=O)(=O)Cc2ccccc2)c(N2CCC(c3ccccc3)CC2)cc1N(CC)CCN(C)C` [Example 42, 2-[(2-Dimethylaminoethyl)ethylamino]-N,N-diethyl-5-phenylmethane-sulfonyl-4-(4-phenylpiperidin-1-yl)benzamide] here?
Answer: 149%

Question: What about the “LDL-receptor induction in %, compared with control” value (from here on “LDL-receptor induction in %”) ([1]; 0.05 μM) of the same molecule?
Answer: 204%

Question: And the “LDL-receptor induction in %” value ([1]; 0.15 μM)?
Answer: 219%

Question: What about the “LDL-receptor induction in %” value ([1]; 1.5 μM) of the same molecule?
Answer: 250%

Question: What about the “LDL-receptor induction in %” value ([1]; 4 μM) of the same molecule?
Answer: 278%

Question: `CCCCCNC(=O)c1cc(S(C)(=O)=O)c(N2CCC(Cc3ccccc3)CC2)cc1NCCN1CCCC1` [Example 53] was tested. Which “Relative change in plasma LDL cholesterol” value [2, 7] did it give?
Answer: −52%

Question: And the “Relative change in plasma total cholesterol” value [2, 7]?
Answer: −7%

Question: What about the “Relative change in plasma triglycerides” value [2, 7] of the same molecule?
Answer: +21%

Question: What about the “Relative change in plasma LDL cholesterol” value [2, 6] of the same molecule?
Answer: −57%

Question: What about the “Relative change in plasma total cholesterol” value [2, 6] of the same molecule?
Answer: −16%

Question: What about the “Relative change in plasma triglycerides” value [2, 6] of the same molecule?
Answer: −11%

Question: And the “Relative change in plasma LDL cholesterol” value [2, 8]?
Answer: −58%

Question: What about the “Relative change in plasma total cholesterol” value [2, 8] of the same molecule?
Answer: −17%

Question: And the “Relative change in plasma triglycerides” value [2, 8]?
Answer: −23%

Question: What about the “LDL-receptor induction (% of control)” value [1, 5] of the same molecule?
Answer: 197%

Question: What about the “LDL-receptor induction (% of control)” value [1, 4] of the same molecule?
Answer: 221%

Question: With `CCCCCNC(=O)c1cc(S(C)(=O)=O)c(N2CCC(c3ccccc3)CC2)cc1NCCN1CCCC1` [Example 54] as the molecule, how does the “LDL-receptor induction (% of control)” value [1, 9] read?
Answer: 223% (0.15 μM)

Question: Which “LDL-receptor induction (% of control)” value [1, 4] does the source give for `COCCCNC(=O)c1cc(S(C)(=O)=O)c(N2CCC(Cc3ccccc3)CC2)cc1NCCN1CCCC1` [Example 57] here?
Answer: 222% (0.15 μM)

Question: With `COCCCNC(=O)c1cc(S(C)(=O)=O)c(N2CCC(Cc3ccccc3)CC2)cc1N(C)CCN(C)C` [Example 62] as the molecule, how does the “LDL-receptor induction (% of control)” value [1, 5] read?
Answer: 205% (0.05 μM)

Question: Which “LDL-receptor induction (% of control)” value [1, 4] does the source give for `CN(C)CCN(C)c1cc(N2CCC(Cc3ccccc3)CC2)c(S(C)(=O)=O)cc1C(=O)N1CCCCC1` [Example 67] here?
Answer: 203% (0.15 μM)

Question: With `CCCCCNC(=O)c1cc(S(=O)(=O)Cc2ccccc2)c(N2CCC(c3ccc(F)cc3)CC2)cc1N(CC)CCN(C)C` [Example 76] as the molecule, how does the “LDL-receptor induction (% of control)” value [1, 4] read?
Answer: 244% (0.15 μM)

Question: For `CCCCCNC(=O)c1cc(S(=O)(=O)Cc2ccccc2)c(N2CCC(c3ccc(C)cc3)CC2)cc1N(CC)CCN(C)C` [Example 78], which “LDL-receptor induction (% of control)” value [1, 4] is on record?
Answer: 200% (0.15 μM)

Question: How did the “LDL-receptor induction (% of control)” value [1, 4] turn out when `CCN(CC)C(=O)c1cc(S(=O)(=O)Cc2ccc(F)cc2F)c(N2CCC(c3ccccc3)CC2)cc1N(CC)CCN(C)C` [Example 82] was run?
Answer: 227% (0.15 μM)

Question: Which “LDL-receptor induction (% of control)” value [1, 4] does the source give for `CCN(CC)C(=O)c1cc(S(=O)(=O)Cc2ccc(C)cc2)c(N2CCC(c3ccccc3)CC2)cc1NCCN1CCCC1` [Example 83] here?
Answer: 212% (0.15 μM)

Question: For `CCN(CC)C(=O)c1cc(S(=O)(=O)Cc2cccc(OC)c2)c(N2CCC(c3ccccc3)CC2)cc1NCCN1CCCC1` [Example 84], which “LDL-receptor induction (% of control)” value [1, 5] is on record?
Answer: 240% (0.05 μM)

Question: Which “LDL-receptor induction (% of control)” value [1, 5] does the source give for `CCN(CC)C(=O)c1cc(S(=O)(=O)Cc2cccc(OC(F)(F)F)c2)c(N2CCC(c3ccccc3)CC2)cc1NCCN1CCCC1` [Example 91] here?
Answer: 231% (0.05 μM)

Question: `CCN(CC)C(=O)c1cc(S(=O)(=O)Cc2cc(OC)cc(OC)c2)c(N2CCC(c3ccccc3)CC2)cc1N(CC)CCN(C)C` [Example 96] was tested. Which “LDL-receptor induction (% of control)” value [1, 5] did it give?
Answer: 196% (0.05 μM)

Question: How did the “LDL-receptor induction (% of control)” value [1, 5] turn out when `CCN(CCN(C)C)c1cc(N2CCC(c3ccccc3)CC2)c(S(=O)(=O)Cc2ccccc2)cc1C(=O)NCCCCCO` [Example 107] was run?
Answer: 288% (0.05 μM)

Question: How did the “LDL-receptor induction (% of control)” value [1, 5] turn out when `CCN(CC)C(=O)c1cc(S(=O)(=O)Cc2ccc(C(F)(F)F)cc2)c(N2CCC(c3ccccc3)CC2)cc1N(CC)CCN(C)C` [Example 113] was run?
Answer: 217% (0.05 μM)

Question: For `CCN(CC)C(=O)c1cc(S(=O)(=O)Cc2ccc(C#N)cc2)c(N2CCC(c3ccccc3)CC2)cc1N(CC)CCN(C)C` [Example 116], which “LDL-receptor induction (% of control)” value [1, 5] is on record?
Answer: 235% (0.05 μM)

Question: `CCCCCNC(=O)c1cc(S(C)(=O)=O)c(N2CCC(c3ccccc3)CC2)cc1NCCN1CCCC1.CS(=O)(=O)O` [Example 141, 2-[NH-Ethyl-N-pyyrolidinyl]-NH-pentyl-5-methylsulfonyl-4-(4-phenylpiperidin-1-yl)benzamide] was tested. Which “LDL-receptor induction (% of control)” value [1, 4] did it give?
Answer: 280% (0.15 μM)

Question: `CCCCCNC(=O)c1cc(S(C)(=O)=O)c(N2CCC(c3ccccc3)CC2)cc1NCCN1CCCC1.Cc1ccc(S(=O)(=O)O)cc1` [Example 142, 2-[NH-Ethyl-N-pyrrolidinyl]-NH-pentyl-5-methylsulfonyl-4-(4-phenylpiperidin-1-yl)benzamide] was tested. Which “LDL-receptor induction (% of control)” value [1, 4] did it give?
Answer: 281% (0.15 μM)

Question: With `CCCCCNC(=O)c1cc(S(C)(=O)=O)c(N2CCC(c3ccccc3)CC2)cc1NCCN1CCCC1` [Example 143, 2-[NH-Ethyl-N-pyrrolidinyl]-NH-pentyl-5-methylsulfonyl-4-(4-phenylpiperidin-1-yl)benzamide] as the molecule, how does the “LDL-receptor induction (% of control)” value [1, 9] read?
Answer: 308% (0.15 μM)

Question: With `CC1CC(C)CN(S(=O)(=O)c2cc(C(=O)O)c(Cl)cc2Cl)C1` (stereo not drawn) [reference compound] as the molecule, how does the “LDL-receptor induction in %” value ([1]; 0.05 μM) read?
Answer: 94%

Question: And the “LDL-receptor induction in %” value ([1]; 0.15 μM)?
Answer: 90%

Question: What about the “LDL-receptor induction in %” value ([1]; 1.5 μM) of the same molecule?
Answer: 90%

Question: What about the “LDL-receptor induction in %” value ([1]; 4 μM) of the same molecule?
Answer: 100%
